Measurements as given in publication PMC5344293, “A phase 1 dose-escalation and expansion study of binimetinib (MEK162), a potent and selective oral MEK1/2 inhibitor” (British Journal of Cancer, 2017).

Assay: Phase 1 safety: adverse events
Assay type: in vivo, human
Protocol: All patients underwent a complete medical history and physical examination, assessment of ECOG performance status and vital signs, and laboratory analysis of haematology, coagulation, clinical chemistry, and urine. Three serial resting and supine 12-lead electrocardiograms were conducted over 5–10 min and cardiac ejection fraction was assessed by echocardiogram or MUGA. In addition, a complete ophthalmologic examination (including visual acuity; fundoscopy and tonometry; optical coherence tomography; and slit-lamp, lens, vitreous, and fluorescence dye examinations) was performed on each patient. These assessments were repeated throughout study participation and/or as clinically indicated. Adverse events were reviewed on an ongoing basis.
Adverse events and serious AEs (SAEs) were coded by preferred term (PT) and system organ class using the Medical Dictionary for Regulatory Activities version 12.0. The severity of AEs was assessed by investigators using the National Cancer Institute Common Terminology Criteria for Adverse Events version 3.0. Two AEs of special interest were captured under the composite terms of ‘combined rash' and ‘combined ocular events.' The ‘combined rash' term included the PTs of dermatitis acneiform, acne, skin exfoliation, and any term containing ‘rash'. The ‘combined ocular events' term included the PTs of retinal deposits, retinopathy, papilloedema, chorioretinopathy, macular oedema, retinal detachment, and retinal disorder.
All patients who received ⩾1 dose of binimetinib were included in the safety analysis. Patients in the safety analysis who had ⩾1 measurable lesion at baseline and at least 1 post-baseline disease assessment were evaluable for efficacy. Kaplan–Meier estimates of progression-free survival (PFS) and overall survival (OS) were performed for patients in the expansion phase ([Kaplan and Meier, 1958]) using SAS Version 9.2 (SAS Institute Inc., Cary, NC, USA).

Structure (SMILES): Cn1cnc2c(F)c(Nc3ccc(Br)cc3F)c(C(=O)NOCCO)cc21 [binimetinib]
- Abdominal pain (30 mg BID (n=4), Gr 1/2): 1 (25) n (%)
- Anaemia (30 mg BID (n=4), Gr 1/2): 1 (25) n (%)
- Anorexia (30 mg BID (n=4), Gr 1/2): 1 (25) n (%)
- Combined ocular events (30 mg BID (n=4), Gr 1/2): 0 (0) n (%)
- Combined rash (30 mg BID (n=4), Gr 1/2): 4 (100) n (%)
- Constipation (30 mg BID (n=4), Gr 1/2): 2 (50) n (%)
- Diarrhoea (30 mg BID (n=4), Gr 1/2): 4 (100) n (%)
- Dizziness (30 mg BID (n=4), Gr 1/2): 0 (0) n (%)
- Dyspnoea (30 mg BID (n=4), Gr 1/2): 2 (50) n (%)
- Fatigue (30 mg BID (n=4), Gr 1/2): 2 (50) n (%)
- Nausea (30 mg BID (n=4), Gr 1/2): 3 (75) n (%)
- Peripheral oedema (30 mg BID (n=4), Gr 1/2): 0 (0) n (%)
- Pyrexia (30 mg BID (n=4), Gr 1/2): 2 (50) n (%)
- Vomiting (30 mg BID (n=4), Gr 1/2): 3 (75) n (%)
- Abdominal pain (30 mg BID (n=4), Gr 3/4): 0 (0) n (%)
- Anaemia (30 mg BID (n=4), Gr 3/4): 0 (0) n (%)
- Anorexia (30 mg BID (n=4), Gr 3/4): 0 (0) n (%)
- Combined ocular events (30 mg BID (n=4), Gr 3/4): 0 (0) n (%)
- Combined rash (30 mg BID (n=4), Gr 3/4): 0 (0) n (%)
- Constipation (30 mg BID (n=4), Gr 3/4): 0 (0) n (%)
- Diarrhoea (30 mg BID (n=4), Gr 3/4): 0 (0) n (%)
- Dizziness (30 mg BID (n=4), Gr 3/4): 0 (0) n (%)
- Dyspnoea (30 mg BID (n=4), Gr 3/4): 0 (0) n (%)
- Fatigue (30 mg BID (n=4), Gr 3/4): 0 (0) n (%)
- Nausea (30 mg BID (n=4), Gr 3/4): 0 (0) n (%)
- Peripheral oedema (30 mg BID (n=4), Gr 3/4): 0 (0) n (%)
- Pyrexia (30 mg BID (n=4), Gr 3/4): 0 (0) n (%)
- Vomiting (30 mg BID (n=4), Gr 3/4): 0 (0) n (%)
- Incidence of ocular events (30 mg BID dose group): 0%
- Patients reporting SAEs (30 mg BID dose group): 50%
- Abdominal pain (45 mg BID (n=44), Gr 1/2): 7 (16) n (%)
- Anaemia (45 mg BID (n=44), Gr 1/2): 5 (11) n (%)
- Anorexia (45 mg BID (n=44), Gr 1/2): 8 (18) n (%)
- Combined ocular events (45 mg BID (n=44), Gr 1/2): 5 (11) n (%)
- Combined rash (45 mg BID (n=44), Gr 1/2): 33 (75) n (%)
- Constipation (45 mg BID (n=44), Gr 1/2): 6 (14) n (%)
- Diarrhoea (45 mg BID (n=44), Gr 1/2): 17 (39) n (%)
- Dizziness (45 mg BID (n=44), Gr 1/2): 5 (11) n (%)
- Dyspnoea (45 mg BID (n=44), Gr 1/2): 5 (11) n (%)
- Fatigue (45 mg BID (n=44), Gr 1/2): 18 (41) n (%)
- Nausea (45 mg BID (n=44), Gr 1/2): 27 (61) n (%)
- Peripheral oedema (45 mg BID (n=44), Gr 1/2): 20 (45) n (%)
- Pyrexia (45 mg BID (n=44), Gr 1/2): 7 (16) n (%)
- Vomiting (45 mg BID (n=44), Gr 1/2): 23 (52) n (%)
- Abdominal pain (45 mg BID (n=44), Gr 3/4): 1 (2) n (%)
- Anaemia (45 mg BID (n=44), Gr 3/4): 3 (7) n (%)
- Anorexia (45 mg BID (n=44), Gr 3/4): 0 (0) n (%)
- Combined ocular events (45 mg BID (n=44), Gr 3/4): 0 (0) n (%)
- Combined rash (45 mg BID (n=44), Gr 3/4): 1 (2) n (%)
- Constipation (45 mg BID (n=44), Gr 3/4): 0 (0) n (%)
- Diarrhoea (45 mg BID (n=44), Gr 3/4): 0 (0) n (%)
- Dizziness (45 mg BID (n=44), Gr 3/4): 0 (0) n (%)
- Dyspnoea (45 mg BID (n=44), Gr 3/4): 2 (5) n (%)
- Fatigue (45 mg BID (n=44), Gr 3/4): 2 (5) n (%)
- Nausea (45 mg BID (n=44), Gr 3/4): 0 (0) n (%)
- Peripheral oedema (45 mg BID (n=44), Gr 3/4): 0 (0) n (%)
- Pyrexia (45 mg BID (n=44), Gr 3/4): 0 (0) n (%)
- Vomiting (45 mg BID (n=44), Gr 3/4): 0 (0) n (%)
- AEs resulting in treatment discontinuation, patients (45 mg BID dose group): 16%
- AEs that resulted in dose reduction, patients (45 mg BID dose group): 16%
- Incidence of combined rash (45 mg BID dose group): 77%
- Incidence of diarrhoea (45 mg BID dose group): 39%
- Incidence of nausea (45 mg BID dose group): 61%
- Incidence of ocular events (45 mg BID dose group): 11%
- Incidence of peripheral oedema (45 mg BID dose group): 45%
- Incidence of vomiting (45 mg BID dose group): 52%
- Median time to onset of combined rash (45 mg BID dose group): 8 days
- Patients reporting SAEs (45 mg BID dose group): 20%
- Abdominal pain (60 mg BID (n=41), Gr 1/2): 7 (17) n (%)
- Anaemia (60 mg BID (n=41), Gr 1/2): 5 (12) n (%)
- Anorexia (60 mg BID (n=41), Gr 1/2): 8 (20) n (%)
- Combined ocular events (60 mg BID (n=41), Gr 1/2): 11 (27) n (%)
- Combined rash (60 mg BID (n=41), Gr 1/2): 35 (85) n (%)
- Constipation (60 mg BID (n=41), Gr 1/2): 8 (20) n (%)
- Diarrhoea (60 mg BID (n=41), Gr 1/2): 25 (61) n (%)
- Dizziness (60 mg BID (n=41), Gr 1/2): 9 (22) n (%)
- Dyspnoea (60 mg BID (n=41), Gr 1/2): 6 (15) n (%)
- Fatigue (60 mg BID (n=41), Gr 1/2): 16 (39) n (%)
- Nausea (60 mg BID (n=41), Gr 1/2): 21 (51) n (%)
- Peripheral oedema (60 mg BID (n=41), Gr 1/2): 21 (51) n (%)
- Pyrexia (60 mg BID (n=41), Gr 1/2): 7 (17) n (%)
- Vomiting (60 mg BID (n=41), Gr 1/2): 20 (49) n (%)
- Abdominal pain (60 mg BID (n=41), Gr 3/4): 3 (7) n (%)
- Anaemia (60 mg BID (n=41), Gr 3/4): 10 (24) n (%)
- Anorexia (60 mg BID (n=41), Gr 3/4): 0 (0) n (%)
- Combined ocular events (60 mg BID (n=41), Gr 3/4): 0 (0) n (%)
- Combined rash (60 mg BID (n=41), Gr 3/4): 1 (2) n (%)
- Constipation (60 mg BID (n=41), Gr 3/4): 2 (5) n (%)
- Diarrhoea (60 mg BID (n=41), Gr 3/4): 0 (0) n (%)
- Dizziness (60 mg BID (n=41), Gr 3/4): 0 (0) n (%)
- Dyspnoea (60 mg BID (n=41), Gr 3/4): 1 (2) n (%)
- Fatigue (60 mg BID (n=41), Gr 3/4): 1 (2) n (%)
- Nausea (60 mg BID (n=41), Gr 3/4): 0 (0) n (%)
- Peripheral oedema (60 mg BID (n=41), Gr 3/4): 0 (0) n (%)
- Pyrexia (60 mg BID (n=41), Gr 3/4): 1 (2) n (%)
- Vomiting (60 mg BID (n=41), Gr 3/4): 0 (0) n (%)
- AEs resulting in treatment discontinuation, patients (60 mg BID dose group): 15%
- AEs that resulted in dose reduction, patients (60 mg BID dose group): 49%
- Incidence of combined rash (60 mg BID dose group): 88%
- Incidence of diarrhoea (60 mg BID dose group): 61%
- Incidence of nausea (60 mg BID dose group): 51%
- Incidence of ocular events (60 mg BID dose group): 27%
- Incidence of peripheral oedema (60 mg BID dose group): 51%
- Incidence of vomiting (60 mg BID dose group): 49%
- Median time to onset of combined rash (60 mg BID dose group): 10 days
- Patients reporting SAEs (60 mg BID dose group): 41%
- Abdominal pain (80 mg BID (n=4), Gr 1/2): 1 (25) n (%)
